Results taken from patent US20240173344A1, “USE OF GABAA RECEPTOR AS TARGET IN PREPARATION OR SCREENING OF DRUG FOR LOWERING BLOOD LIPID LEVEL, TREATING OBESITY, AND/OR IMPROVING METABOLISM” (SHANGHAI INSTITUTE OF ENDOCRINE AND METABOLIC DISEASES, priority 2022, published 2024).
“And” between values parts separate entries of the source, which are not always exact repeats. Equal entries are not always repeated.

System: obese mouse model
Assay: Intraperitoneal puerarin derivatives in obese mouse model: body weight, blood lipid, jejunal TG
Type: in vivo, mice
Conditions: for Body weight change percentage, Mean: puerarin derivative-1; for Body weight change percentage: intraperitoneal puerarin derivative-1; for Effect on TG (lipid) absorption in small intestine / Effect on blood lipid level / Effect on body weight of the obese mouse: intraperitoneal injection, result in words; for Blood lipid level / Jejunal TG level: individual obese mice
Source text: In the present disclosure, the mice were fed with a high-fat diet in which a mass percentage of fat was 60% for 12 weeks, and when a body weight reached 35 g or more, animal models of alimentary obesity were successfully constructed. At a formal stage of the experiment (starting on day 0 in FIG. 1A, FIG. 3A, FIG. 6A, and FIG. 7A), the mice were raised in single cages, during which a daily food intake of each mouse model was accurately recorded, the feces was collected before and after drug intervention, and a daily body weight curve was recorded.
A method for determining TG in a sample was as follows: 20 mg to 30 mg of a sample was first weighed, a 5% NP40-containing lysis buffer was added, and a resulting mixture was homogenated and incubated in a metal bath at 95° C. for 5 min, which was repeated twice. A resulting homogenate was cooled to room temperature and then centrifuged at 15,000 rpm for 2 min to 3 min, and a resulting supernatant was pipetted for determination. A Biovision kit was used to determine TG. 2 μl of the supernatant was added to each well, and after a chromogenic reaction was completed, a value of each well was determined by a microplate reader. TG in the small intestinal tissue was quantified through a standard protein concentration; and a total amount of lipids excreted with the feces was calculated based on a measured value of the feces sample and a total mass of the sample at 24 h.

[1] = group mean of 10 mice, puerarin derivative-2 group
[2] = group mean of 8 mice, puerarin derivative-3 group

OCC1OC(c2c(O)ccc3c2OC=C(c2ccc(O)cc2)C3O)C(O)C(O)C1O (centres unmarked) [Derivative-1]
Body weight change percentage, Mean (Day 0, group mean of 10 mice): 0.00%
Body weight change percentage (Day 0, individual obese mice): 0.00%
Body weight change percentage, Mean (Day 1, group mean of 10 mice): −1.88%
Body weight change percentage (Day 1, individual obese mice): −0.25% and −2.34% and −2.27% and −3.30% and −2.93% and 0.00% and −2.45% and 0.28% and −2.89% and −2.63%
Body weight change percentage, Mean (Day 2, group mean of 10 mice): −2.10%
Body weight change percentage (Day 2, individual obese mice): −0.74% and −1.86% and −2.56% and −3.79% and −4.32% and −0.26% and −2.20% and 0.00% and −2.62% and −2.63%
Body weight change percentage, Mean (Day 3, group mean of 10 mice): −2.96%
Body weight change percentage (Day 3, individual obese mice): −1.24% and −3.06% and −2.56% and −4.04% and −4.32% and −1.55% and −2.45% and −1.14% and −4.53% and −4.77%
Body weight change percentage, Mean (Day 4, group mean of 10 mice): −3.71%
Body weight change percentage (Day 4, individual obese mice): −0.99% and −3.79% and −3.73% and −6.05% and −4.88% and −3.15% and −3.46% and −2.30% and −4.26% and −4.46%
Body weight change percentage, Mean (Day 5, group mean of 10 mice): −3.61%
Body weight change percentage (Day 5, individual obese mice): −1.74% and −3.55% and −4.33% and −6.05% and −3.48% and −2.08% and −2.95% and −3.79% and −3.70% and −4.46%
Body weight change percentage, Mean (Day 6, group mean of 10 mice): −3.95%
Body weight change percentage (Day 6, individual obese mice): −4.08% and −3.06% and −2.56% and −6.31% and −5.17% and −2.35% and −3.21% and −2.60% and −5.09% and −5.08%
Body weight change percentage, Mean (Day 7, group mean of 10 mice): −4.08%
Body weight change percentage (Day 7, individual obese mice): −3.81% and −2.10% and −5.25% and −6.56% and −6.62% and −2.35% and −2.20% and −3.79% and −4.26% and −3.84%
Effect on TG (lipid) absorption in small intestine: inhibit the TG absorption in small intestine
Effect on blood lipid level: effectively reduce blood lipid level
Effect on body weight of the obese mouse: significantly reduce the body weight

Cc1ccc(-c2coc3c(C4OC(CO)C(O)C(O)C4O)c(O)ccc3c2=O)cc1 (centres unmarked) [puerarin derivative-2]
Body weight change curve, Mean (Day 0, group mean of 10 mice, puerarin derivative-2): 0.00%
Body weight change curve (Day 0, individual obese mice, puerarin derivative-2): 0.00%
Body weight change curve, Mean (Day 1, group mean of 10 mice, puerarin derivative-2): −1.67%
Body weight change curve (Day 1, individual obese mice, puerarin derivative-2): −2.39% and −0.56% and −1.13% and −2.22% and 0.90% and −2.19% and −0.28% and −2.70% and −2.55% and −3.57%
Body weight change curve, Mean (Day 2, group mean of 10 mice, puerarin derivative-2): −2.33%
Body weight change curve (Day 2, individual obese mice, puerarin derivative-2): −2.74% and −2.26% and −1.99% and −4.21% and 0.60% and −2.75% and −0.84% and −2.15% and −2.88% and −4.10%
Body weight change curve, Mean (Day 3, group mean of 10 mice, puerarin derivative-2): −2.88%
Body weight change curve (Day 3, individual obese mice, puerarin derivative-2): −2.74% and −3.43% and −3.16% and −4.55% and 0.00% and −2.75% and −1.41% and −3.55% and −2.88% and −4.37%
Body weight change curve, Mean (Day 4, group mean of 10 mice, puerarin derivative-2): −3.46%
Body weight change curve (Day 4, individual obese mice, puerarin derivative-2): −2.74% and −3.73% and −3.16% and −3.87% and −0.91% and −3.89% and −1.13% and −4.40% and −4.21% and −6.57%
Body weight change curve, Mean (Day 5, group mean of 10 mice, puerarin derivative-2): −3.68%
Body weight change curve (Day 5, individual obese mice, puerarin derivative-2): −2.74% and −4.03% and −3.76% and −4.21% and −0.61% and −3.89% and −1.99% and −4.11% and −4.89% and −6.57%
Body weight change curve, Mean (Day 6, group mean of 10 mice, puerarin derivative-2): −3.68%
Body weight change curve (Day 6, individual obese mice, puerarin derivative-2): −2.74% and −4.03% and −3.16% and −3.54% and −0.91% and −4.47% and −4.67% and −3.55% and −2.88% and −6.85%
Body weight change curve, Mean (Day 7, group mean of 10 mice, puerarin derivative-2): −3.98%
Body weight change curve (Day 7, individual obese mice, puerarin derivative-2): −3.45% and −2.26% and −2.57% and −3.87% and −2.15% and −5.66% and −4.37% and −2.43% and −5.93% and −7.13%
Blood lipid level, Mean [1]: 1.0006 mM
Jejunal TG level, Mean [1]: 1.3072 μmol/mg/protein
Blood lipid level (puerarin derivative-2 group): 1.0874 mM and 1.0496 mM and 0.6903 mM and 0.8792 mM and 0.6729 mM and 1.3428 mM and 0.9551 mM and 1.1631 mM and 1.1347 mM and 1.0307 mM
Jejunal TG level (puerarin derivative-2 group): 1.7043 μmol/mg/protein and 1.5325 μmol/mg/protein and 1.5551 μmol/mg/protein and 1.3572 μmol/mg/protein and 1.1252 μmol/mg/protein and 1.1433 μmol/mg/protein and 1.3121 μmol/mg/protein and 1.0924 μmol/mg/protein and 1.2506 μmol/mg/protein and 0.9988 μmol/mg/protein
Effect on TG (lipid) absorption in small intestine: inhibiting the small intestinal lipid absorption
Effect on blood lipid level: reducing blood lipid
Effect on body weight of the obese mouse: reducing blood lipid and body weight

OCC1OC2c3c(ccc4c3OC=C(c3ccc(O)cc3)C4O)OC2C(O)C1O (centres unmarked) [puerarin derivative-3]
Body weight change curve, Mean (Day 0, group mean of 8 mice, puerarin derivative-3): 0.00%
Body weight change curve (Day 0, individual obese mice, puerarin derivative-3): 0.00%
Body weight change curve, Mean (Day 1, group mean of 8 mice, puerarin derivative-3): −2.37%
Body weight change curve (Day 1, individual obese mice, puerarin derivative-3): −3.96% and −2.50% and −1.71% and −2.35% and −2.28% and −0.26% and −2.59% and −3.32%
Body weight change curve, Mean (Day 2, group mean of 8 mice, puerarin derivative-3): −3.16%
Body weight change curve (Day 2, individual obese mice, puerarin derivative-3): −5.57% and −1.65% and −3.77% and −2.65% and −4.06% and −0.80% and −2.88% and −3.90%
Body weight change curve, Mean (Day 3, group mean of 8 mice, puerarin derivative-3): −3.01%
Body weight change curve (Day 3, individual obese mice, puerarin derivative-3): −1.49% and −2.50% and −4.68% and −2.65% and −4.36% and −1.34% and −2.88% and −4.19%
Body weight change curve, Mean (Day 4, group mean of 8 mice, puerarin derivative-3): −3.76%
Body weight change curve (Day 4, individual obese mice, puerarin derivative-3): −2.09% and −3.65% and −6.24% and −2.65% and −3.76% and −1.07% and −4.39% and −6.27%
Body weight change curve, Mean (Day 5, group mean of 8 mice, puerarin derivative-3): −4.10%
Body weight change curve (Day 5, individual obese mice, puerarin derivative-3): −3.02% and −3.65% and −6.24% and −2.65% and −4.06% and −1.88% and −5.00% and −6.27%
Body weight change curve, Mean (Day 6, group mean of 8 mice, puerarin derivative-3): −4.33%
Body weight change curve (Day 6, individual obese mice, puerarin derivative-3): −3.33% and −5.13% and −6.24% and −2.65% and −3.46% and −4.41% and −2.88% and −6.57%
Body weight change curve, Mean (Day 7, group mean of 8 mice, puerarin derivative-3): −5.42%
Body weight change curve (Day 7, individual obese mice, puerarin derivative-3): −5.24% and −6.65% and −7.51% and −3.26% and −3.76% and −4.13% and −5.93% and −6.88%
Blood lipid level, Mean [2]: 1.2750 mM
Jejunal TG level, Mean [2]: 1.2900 μmol/mg/protein
Blood lipid level (puerarin derivative-3 group): 1.62 mM and 1.06 mM (2×) and 1.69 mM and 1.23 mM and 1.07 mM and 1.29 mM and 1.18 mM
Jejunal TG level (puerarin derivative-3 group): 1.29 μmol/mg/protein and 1.48 μmol/mg/protein (2×) and 1.36 μmol/mg/protein and 1.27 μmol/mg/protein and 1.53 μmol/mg/protein and 1.06 μmol/mg/protein and 0.85 μmol/mg/protein
Effect on TG (lipid) absorption in small intestine: inhibiting the small intestinal lipid absorption
Effect on blood lipid level: reducing blood lipid
Effect on body weight of the obese mouse: reducing blood lipid and body weight
